Tested on: not given
Assay: not given
Conditions: not given

| melting point | SMILES |
| --- | --- |
| 178.3 to 180.8 °C | Brc1ccc2c(c1)nnn2Cc1c[nH]cn1 |
| 137.8 to 138.9 °C | c1ccc2c(c1)nnn2Cc1c[nH]cn1 |
| 166 to 167.5 °C | Fc1cc(F)c2nnn(Cc3ncc[nH]3)c2c1 |
| 181.2 to 182.1 °C | CCC(C(N)=O)n1nnc2ccc(Br)cc21 (stereo not drawn) [Compound 3, 2-(6-Bromo-benzotriazol-1-yl)-butyramide] |
| 241.8 to 242.7 °C | CS(=O)(=O)c1ccc2nnn(CC(N)=O)c2c1 [Compound 5, 2-(6-Methanesulfonyl-benzotriazol-1-yl)-acetamide] |
| 155 to 156.3 °C | CCC(C(N)=O)n1nnc2cc(F)cc(F)c21 (stereo not drawn) [Compound 6, 2-(5,7-Difluoro-benzotriazol-1-yl)-butyramide] |
| 199 to 200.5 °C | CCC(C(N)=O)n1nnc2c(F)cc(F)cc21 (stereo not drawn) [Compound 7, 2-(4,6-Difluoro-benzotriazol-1-yl)-butyramide] |
| 236.5 to 238 °C | NC(=O)Cn1nnc2cc(F)cc(F)c21 [Compound 8, 2-(5,7-Difluoro-benzotriazol-1-yl)-acetamide] |
| 247.8 to 248.9 °C | NC(=O)Cn1nnc2c(F)cc(F)cc21 [Compound 9, 2-(4,6-Difluoro-benzotriazol-1-yl)-acetamide] |
| 156.8 to 158 °C | CC(C(N)=O)n1nnc2ccc(F)cc21 (stereo not drawn) [Compound 10, 2-(6-Fluoro-benzotriazol-1-yl)-propionamide] |
| 138.6 to 140.1 °C | CC(C(N)=O)n1nnc2cc(F)ccc21 (stereo not drawn) [Compound 11, 2-(5-Fluoro-benzotriazol-1-yl)-propionamide] |
| 221.5 to 222.5 °C | NC(=O)Cn1nnc2cc(Br)ccc21 [Compound 13, 2-(5-Bromo-benzotriazol-1-yl)-acetamide] |
| 153 to 154.5 °C | CC[C@@H](C(N)=O)n1nnc2c(Cl)cccc21 [Compound 15, (2S)-2-(4-Chlorobenzotriazol-1-yl)butanamide] |
| 164 to 165.7 °C | CC(C)[C@@H](C(N)=O)n1nnc2ccccc21 [Compound 16, (2S)-2-(Benzotriazol-1-yl)-3-methyl-butanamide] |
| 177.5 to 178.8 °C | CC(C)CC(C(N)=O)n1nnc2ccccc21 (stereo not drawn) [Compound 17, 2-(Benzotriazol-1-yl)-4-methyl-pentanamide] |
| 175.5 to 177.5 °C | CC[C@@H](C(N)=O)n1nnc2cc(Cl)ccc21 [Compound 18, (2S)-2-(5-Chlorobenzotriazol-1-yl)butanamide] |
| 206.2 to 207.3 °C | CC[C@H](C(N)=O)n1nnc2cc(Br)ccc21 [Compound 21, (2R)-2-(5-Bromobenzotriazol-1-yl)butanamide] |
| 162.5 to 163.7 °C | CC[C@H](C(N)=O)n1nnc2c(F)cccc21 [Compound 23, (2R)-2-(4-Fluorobenzotriazol-1-yl)butanamide] |
| 163.9 to 165.1 °C | CC[C@@H](C(N)=O)n1nnc2c(F)cccc21 [Compound 24, (2S)-2-(4-Fluorobenzotriazol-1-yl)butanamide] |

Tested on: psychomotor seizures induced via corneal stimulation (6 Hz) in female NMRI mice
Assay: 6 Hz electroshock seizure model (anticonvulsant properties)
Type: in vivo
Conditions: Mus musculus, po, 32 mA, 3 s corneal stimulation, p.o., pretreatment time 60 mins, vehicle 5% cremaphor, read-out: ED50 (dose that would give a 50% protection from seizures)
Text: The animal models being used for the discovery of novel antiepileptic drugs are numerous. Among these, a low frequency (6 Hz) electroshock seizure model has recently come into the limelight as a potential model of pharmacoresistant epilepsy (see Epilepsy: a comprehensive textbook, pag. 1477, by By Jerome Engel, Timothy A. Pedley, Jean Aicardi, Marc A Dichter, Solomon Moshé—2007—Medical), and it is therefore an animal model of primary interest in antiepileptic drug discovery. The compounds of the invention have shown remarkable activity to protect against 6 Hz seizures.
The evaluation of the anticonvulsant properties was carried out in female NMRI mice (20-25 g, Taconic, Denmark). The mice were housed in groups (8 per cage according to weight) with food and water available ad libitum The environment was temperature (20±2° C.) and humidity (55±15%) controlled, and consisted of a 12:12 h light-dark cycle (lights on 06:00 h). The experiments were performed according to the Danish Committee for Experiments on Animals. […]
For screening purposes, the test compound was tested at 1 dose at 1 time-point. In the case of protection of 3 or more out of 8 mice, the compound were further evaluated in dose response (N=8/group). […]

| SMILES | ED50 |
| --- | --- |
| CCC(C(N)=O)n1nnc2ccccc21 (racemic) [Compound 1, 2-Benzotriazol-1-yl-butyramide] | 38 mg/kg |
| CC[C@@H](C(N)=O)n1nnc2cc(Br)ccc21 [Compound 12, (2S)-2-(5-Bromobenzotriazol-1-yl)butanamide] | 38 mg/kg |
